Assay results from US10376520B2, “Methods for the treatment of cardiovascular disorders” (Galapagos NV, priority 2015, dated 2019).

Legend:
Type in all cases: in vivo, human
[1] = system: healthy volunteers, and patients suffering from inflammatory diseases; assay: Lipid profile after oral administration of Compound 1 in humans (summary over the studies)
Description: When Compound 1 was administered orally in humans, an unexpected change in the lipid profile was observed.
In contrast, whereas Compound 1 raised the low [total cholesterol] levels, an unexpected disproportionate rise in blood of [HDL] vs [LDL] was observed. In particular, [HDL] levels of 5-23% compared to initial levels were seen. Moreover, this rise in [HDL] was substantially higher than the corresponding increases in [LDL] levels. In particular between 1.1 and 4 fold higher increases in [HDL] vs. [LDL] were seen.
Typically, in a recent treatment study with Tofacitinib, a JAK inhibitor for 6 weeks at a dose of 10 mg bid in RA patient, the atherogenic index was unchanged before and after treatment at about 3.5 (Charles-Schoeman et al., 2015) thus leaving the patient at an increased cardiovascular risk before and after treatment.
Furthermore, this effect was sustained over at least 12 weeks, and at least 24 weeks and were observed over a dose range of 50-200 mg administered either twice daily (b.i.d) or once a day (q.d.).
Additionally, this effect was seen both in healthy volunteers, and patients suffering from inflammatory diseases (for example RA and Crohn's disease).

RA patients [2] = assay: Plasma Serum Amyloid A (SAA) concentration (ELISA), Study 4; settings: for SAA level, 4 weeks CFB: 4 weeks change from baseline
Description: (§1) Randomized double-blind, placebo-controlled add on study in subjects with active RA who have an inadequate response to MTX monotherapy, in combination with methotrexate, administered for 4 weeks in the treatment of subjects with active rheumatoid arthritis who have an inadequate response to methotrexate alone.
(§2) Compound 1 (dosed as a [Compound 1:HCl:3H2O]) capsules administered orally in 30 mg, 75 mg, 150 mg, or 300 mg doses per day for 4 weeks.
Plasma SAA concentration was determined using a commercial available Novex ELISA kit from Life technologies (Bleiswijk, The Netherlands) according to manufacturer's instruction. Catalogue number KHA0011, lot number used: 1433688A.

RA patients [3] = assay: Lipoprotein A (Lp(a)) level (Selectra autoanalyzer), Study 4; settings: for LpA level, 4 weeks CFB: 4 weeks change from baseline
Description: as §1, §2
Lipoprotein A (Lp(a)) were measured on the Selectra autoanalyzer (Sopachem BV, 44-RI Straat 33, 4051 AP Ochten, The Netherlands). All assays were commercially available from DiaSys Diagnostic Systems GmbH, Alte Strasse 9, 65558 Holzheim, Germany.

RA patients [4] = assay: Plasma ApoC-II concentration (ELISA), Study 4; settings: 4 weeks change from baseline
Description: as §1, §2
Plasma ApoC-II and ApoC-III concentrations are determined using commercial available ELISA kits from Abnova (9th Floor, No. 108, Jhouzih St., Neihu District. Taipei City, 114, Taiwan) according to manufacturer's instruction. apoC2: catalogue number KA0464, lot number used: 08871403. apoC3: catalogue number KA0465, lot number used: 02961525.

RA patients [5] = assay: LDL determination, Study 4 (RA patients, 4 weeks, add-on to MTX); settings: for [LDL] levels: Study 4
Source text: Randomized, double-blind, placebo-controlled, multicenter, phase II study of Compound 1 (dosed as a [Compound 1:HCl:3H2O]) to compare four dose regimens versus placebo, in combination with methotrexate, administered for 4 weeks in the treatment of subjects with active rheumatoid arthritis who have an inadequate response to methotrexate alone.
as §1
90 subjects randomized to one of 4 dose regimens of Compound 1 (dosed as a [Compound 1:HCl:3H2O]) or placebo, on top of their stable dose of MTX. Thus, each of the 4 different doses of Compound 1 (dosed as a [Compound 1:HCl:3H2O]) and placebo groups has 18 subjects.
as §2
The determination of [LDL]-cholesterol is made using an automated method taking advantage of the selective micellary solubilization of [LDL]-cholesterol by a nonionic detergent and the interaction of a sugar compound and lipoproteins (VLDL and chylomicrons).
When a detergent is included in the enzymatic method for cholesterol determination (cholesterol esterase, cholesterol oxidase coupling reaction), the relative reactivities of cholesterol in the lipoprotein fractions increase in this order: [HDL]<chylomicrons <VLDL <[LDL]. In the presence of Mg^2+, a sugar compound markedly reduces the enzymatic reaction of the cholesterol measurement in VLDL and chylomicrons. The combination of a sugar compound with detergent enables the selective determination of [LDL]-cholesterol in serum. (Friedewald et al., 1972; Rifai et al., 1992)
Homogeneous enzymatic colorimetric assay.
In the presence of peroxidase, the hydrogen peroxide generated reacts with 4-aminoantipyrine and Sodium N-(2-hydroxy-3-sulfopropyl)-3,5-dimethoxyaniline (HSDA) to form a purple-blue dye.
The color intensity of this dye is directly proportional to the cholesterol concentration and is measured photometrically.
Human serum and plasma samples [LDL] determination was done on a Roche/Hitachi Cobas c 701/702 system which automatically calculate the analyte concentration of each sample. Samples containing precipitates are centrifuged before performing the assay.

## O=C(Nc1nc2cccc(-c3ccc(CN4CCS(=O)(=O)CC4)cc3)n2n1)C1CC1 [Compound 1, cyclopropanecarboxylic acid {5-[4-(1,1-dioxo-thiomorpholin-4-ylmethyl)-phenyl]-[1,2,4]triazolo[1,5-a]pyridin-2yl}-amide]
[1]; administered orally in humans
  rise in [HDL] levels compared to initial levels: 5-23%
[1]; doses ranging from 50 mg to 200 mg (once or twice daily) for a period of at least 4 weeks
  atherogenic index: drop of the atherogenic index
RA patients [2]; 30 mg q.d.
  SAA level, 4 weeks CFB: −15.4%
  SAA level, Baseline: 935.4 ng/mL
  SAA level, week 4: 436.2 ng/mL
RA patients [2]; 75 mg q.d.
  SAA level, 4 weeks CFB: −13.5%
  SAA level, Baseline: 883.7 ng/mL
  SAA level, week 4: 201.3 ng/mL
RA patients [2]; 150 mg q.d.
  SAA level, 4 weeks CFB: −56.7%
  SAA level, Baseline: 621.3 ng/mL
  SAA level, week 4: 388.5 ng/mL
RA patients [2]; 300 mg q.d.
  SAA level, 4 weeks CFB: −62.0%
  SAA level, Baseline: 555.6 ng/mL
  SAA level, week 4: 43.2 ng/mL
RA patients [3]; 30 mg q.d.
  LpA level, 4 weeks CFB: 3.9%
  LpA level, Baseline: 22.5 mg/dL
  LpA level, week 4: 25.9 mg/dL
RA patients [3]; 75 mg q.d.
  LpA level, 4 weeks CFB: −3.7%
  LpA level, Baseline: 28.5 mg/dL
  LpA level, week 4: 23.6 mg/dL
RA patients [3]; 150 mg q.d.
  LpA level, 4 weeks CFB: 7.0%
  LpA level, Baseline: 29.5 mg/dL
  LpA level, week 4: 35 mg/dL
RA patients [3]; 300 mg q.d.
  LpA level, 4 weeks CFB: 4.4%
  LpA level, Baseline: 13.4 mg/dL
  LpA level, week 4: 10.1 mg/dL
RA patients [4]; 30 mg q.d.
  ApoC-II level, 4 weeks CFB: 11.2%
RA patients [4]; 75 mg q.d.
  ApoC-II level, 4 weeks CFB: 23.3%
RA patients [4]; 150 mg q.d.
  ApoC-II level, 4 weeks CFB: 8.6%
RA patients [4]; 300 mg q.d.
  ApoC-II level, 4 weeks CFB: 37.0%
RA patients [5]; 30 mg qd
  [LDL] % Mean % variation vs baseline after 4 weeks: 7%
RA patients [5]; 75 mg qd
  [LDL] % Mean % variation vs baseline after 4 weeks: 7%
RA patients [5]; 150 mg qd
  [LDL] % Mean % variation vs baseline after 4 weeks: 1%
RA patients [5]; 300 mg qd
  [LDL] % Mean % variation vs baseline after 4 weeks: 13%
RA patients [5]; 30 mg q.d., baseline
  [LDL] levels: 3.34 mmol/L
RA patients [5]; 30 mg q.d., week 1
  [LDL] levels: 3.40 mmol/L
RA patients [5]; 30 mg q.d., week 2
  [LDL] levels: 3.35 mmol/L
RA patients [5]; 30 mg q.d., week 3
  [LDL] levels: 3.41 mmol/L
RA patients [5]; 30 mg q.d., week 4
  [LDL] levels: 3.60 mmol/L
RA patients [5]; 75 mg q.d., baseline
  [LDL] levels: 3.22 mmol/L
RA patients [5]; 75 mg q.d., week 1
  [LDL] levels: 3.25 mmol/L
RA patients [5]; 75 mg q.d., week 2
  [LDL] levels: 3.17 mmol/L
RA patients [5]; 75 mg q.d., week 3
  [LDL] levels: 3.14 mmol/L
RA patients [5]; 75 mg q.d., week 4
  [LDL] levels: 3.36 mmol/L
RA patients [5]; 150 mg q.d., baseline
  [LDL] levels: 3.01 mmol/L
RA patients [5]; 150 mg q.d., week 1
  [LDL] levels: 3.18 mmol/L
RA patients [5]; 150 mg q.d., week 2
  [LDL] levels: 2.95 mmol/L
RA patients [5]; 150 mg q.d., week 3
  [LDL] levels: 2.96 mmol/L
RA patients [5]; 150 mg q.d., week 4
  [LDL] levels: 3.06 mmol/L
RA patients [5]; 300 mg q.d., baseline
  [LDL] levels: 2.82 mmol/L
RA patients [5]; 300 mg q.d., week 1
  [LDL] levels: 3.19 mmol/L
RA patients [5]; 300 mg q.d., week 2
  [LDL] levels: 3.11 mmol/L
RA patients [5]; 300 mg q.d., week 3
  [LDL] levels: 3.18 mmol/L
RA patients [5]; 300 mg q.d., week 4
  [LDL] levels: 3.18 mmol/L
